Test results: patent US20260256792A1, “TREATMENT OF CHRONIC SPONTANEOUS URTICARIA BY ADMINISTERING (R)-2-[3-[4-AMINO-3-(2-FLUORO-4-PHENOXY-PHENYL)PYRAZOLO[3,4-D]PYRIMIDIN-1-YL]PIPERIDINE-1-CARBONYL]-4-METHYL-4-[4-(OXETAN-3-YL)PIPERAZIN-1-YL]PENT-2-ENENITRILE” (priority 2023, published 2026)

Test system: moderate-to-severe chronic spontaneous urticaria (CSU)
Assay: Phase 2 CSU study: hives severity score over 7 days (HSS7)
Assay type: in vivo, human
Parameters: key to HSS7 Change from baseline, Median / HSS7, Median / HSS7, Max / HSS7 Change from baseline, Q1 / HSS7 Change from baseline, Q3 / HSS7 Change from baseline, Max: 7-day sum of daily hive scores, each 0 = none to 3 = >50 hives
Excerpt: The study comprises a 12 week, randomized, double-blind, placebo-controlled, multi-center, dose-ranging efficacy and safety phase, followed by a 40 week open label extension (OLE) phase (see FIG. 1).
The study consists of three phases and an optional OLE phase.
The UAS is a validated PRO measure. The daily UAS is the sum of the daily Hive Severity Score (HSS, ranging from 0=None to 3=more than 50 hives) and the daily Itch Severity Score (ISS, ranging from 0=None to 3=intense), the 2 key urticaria signs and symptoms which are wheals and itch. The daily UAS scores range from 0 to 6 point/day. Daily UAS scores are summed over 7-day period to create the UAS7, ranging from 0 to 42, and are composed of the HSS7 and ISS7 components. […] Patients were to complete the UAS using the e-diary. The e-diary was to be used once daily on the same time of each day recording of participant's answers to the urticaria activity score over 7 days (UAS7) questionnaire. For participants who entered the OLE phase, their answers to the UAS7 questionnaire were also to be collected from Week 20 to Week24 and from Week 48 to Week 52.
The following secondary endpoints were to be analyzed using the same approach as for the primary endpoint: • Change from baseline in UAS7 at Week 4 • Change from baseline in UAS7 at Week 12 (for US and US reference countries) • Change from baseline in ISS7 at Week 12 (except US and US reference countries) • Change from baseline in HSS7 at Week 12

[1] = Week 10, 400 mg BID, Omalizumab-Naïve Population
[2] = Week 10, 400 mg BID, Patients with Prior Omalizumab Use
[3] = Week 10, 400 mg QPM, Omalizumab-Naïve Population
[4] = Week 10, 400 mg QPM, Patients with Prior Omalizumab Use
[5] = Week 10, 400 mg TID, Omalizumab-Naïve Population
[6] = Week 10, 400 mg TID, Patients with Prior Omalizumab Use
[7] = Week 11, 400 mg BID, Omalizumab-Naïve Population
[8] = Week 11, 400 mg BID, Patients with Prior Omalizumab Use
[9] = Week 11, 400 mg QPM, Omalizumab-Naïve Population
[10] = Week 11, 400 mg QPM, Patients with Prior Omalizumab Use
[11] = Week 11, 400 mg TID, Omalizumab-Naïve Population
[12] = Week 11, 400 mg TID, Patients with Prior Omalizumab Use
[13] = Week 12, 400 mg BID, Omalizumab-Naïve Population
[14] = Week 12, 400 mg BID, Patients with Prior Omalizumab Use
[15] = Week 12, 400 mg QPM, Omalizumab-Naïve Population
[16] = Week 12, 400 mg QPM, Patients with Prior Omalizumab Use
[17] = Week 12, 400 mg TID, Omalizumab-Naïve Population
[18] = Week 12, 400 mg TID, Patients with Prior Omalizumab Use

SMILES: CC(C)(C=C(C#N)C(=O)N1CCC[C@@H](n2nc(-c3ccc(Oc4ccccc4)cc3F)c3c(N)ncnc32)C1)N1CCN(C2COC2)CC1 [rilzabrutinib, (R)-2-[3-[4-amino-3-(2-fluoro-4-phenoxy-phenyl)pyrazolo[3,4-d]pyrimidin-1-yl]piperidine-1-carbonyl]-4-methyl-4-[4-(oxetan-3-yl)piperazin-1-yl]pent-2-enenitrile]
- HSS7, Median [1]: 6.50
- HSS7 Change from baseline, Mean (SD) [1]: −6.95 (5.65)
- HSS7 Change from baseline, Median [1]: −6.50
- HSS7 Percent change from baseline, Mean (SD) [1]: −53.45 (42.56) %
- HSS7 Percent change from baseline, Median [1]: −47.73%
- HSS7, Mean (SD) [2]: 5.20 (7.19)
- HSS7, Median [2]: 2.00
- HSS7 Change from baseline, Mean (SD) [2]: −9.60 (9.13)
- HSS7 Change from baseline, Median [2]: −12.00
- HSS7 Percent change from baseline, Mean (SD) [2]: −58.10 (53.18) %
- HSS7 Percent change from baseline, Median [2]: −90.48%
- HSS7, Mean (SD) [3]: 9.88 (5.93)
- HSS7, Median [3]: 8.00
- HSS7 Change from baseline, Mean (SD) [3]: −5.27 (5.66)
- HSS7 Change from baseline, Median [3]: −4.00
- HSS7 Percent change from baseline, Mean (SD) [3]: −33.86 (34.68) %
- HSS7 Percent change from baseline, Median [3]: −28.64%
- HSS7, Mean (SD) [4]: 8.00 (NC)
- HSS7, Median [4]: 8.00
- HSS7 Change from baseline, Mean (SD) [4]: −12.00 (NC)
- HSS7 Change from baseline, Median [4]: −12.00
- HSS7 Percent change from baseline, Mean (SD) [4]: −60.00 (NC) %
- HSS7 Percent change from baseline, Median [4]: −60.00%
- HSS7, Mean (SD) [5]: 5.87 (5.06)
- HSS7, Median [5]: 4.50
- HSS7 Change from baseline, Mean (SD) [5]: −8.20 (5.62)
- HSS7 Change from baseline, Median [5]: −9.00
- HSS7 Percent change from baseline, Mean (SD) [5]: −57.32 (34.80) %
- HSS7 Percent change from baseline, Median [5]: −63.10%
- HSS7, Mean (SD) [6]: 3.00 (4.65)
- HSS7, Median [6]: 1.00
- HSS7 Change from baseline, Mean (SD) [6]: −13.03 (7.21)
- HSS7 Change from baseline, Median [6]: −13.00
- HSS7 Percent change from baseline, Mean (SD) [6]: −79.31 (25.96) %
- HSS7 Percent change from baseline, Median [6]: −91.50%
- HSS7, Mean (SD) [7]: 7.13 (7.07)
- HSS7, Median [7]: 5.83
- HSS7 Change from baseline, Mean (SD) [7]: −7.34 (6.14)
- HSS7 Change from baseline, Median [7]: −7.00
- HSS7 Percent change from baseline, Mean (SD) [7]: −52.82 (41.27) %
- HSS7 Percent change from baseline, Median [7]: −54.55%
- HSS7, Mean (SD) [8]: 4.80 (7.46)
- HSS7, Median [8]: 0.00
- HSS7 Change from baseline, Mean (SD) [8]: −10.00 (9.67)
- HSS7 Change from baseline, Median [8]: −12.00
- HSS7 Percent change from baseline, Median [8]: −100.00%
- HSS7, Mean (SD) [9]: 10.18 (6.18)
- HSS7, Median [9]: 9.33
- HSS7 Change from baseline, Mean (SD) [9]: −5.18 (5.64)
- HSS7 Change from baseline, Median [9]: 3.00
- HSS7 Percent change from baseline, Mean (SD) [9]: −33.21 (36.21) %
- HSS7 Percent change from baseline, Median [9]: −30.00%
- HSS7, Mean (SD) [10]: 9.00 (NC)
- HSS7, Median [10]: 9.00
- HSS7 Change from baseline, Mean (SD) [10]: −11.00 (NC)
- HSS7 Change from baseline, Median [10]: −11.00
- HSS7 Percent change from baseline, Mean (SD) [10]: −55.00 (NC) %
- HSS7 Percent change from baseline, Median [10]: −55.00%
- HSS7, Mean (SD) [11]: 6.17 (5.40)
- HSS7, Median [11]: 5.83
- HSS7 Change from baseline, Mean (SD) [11]: −7.90 (6.07)
- HSS7 Change from baseline, Median [11]: −8.00
- HSS7 Percent change from baseline, Mean (SD) [11]: −55.30 (37.59) %
- HSS7 Percent change from baseline, Median [11]: −61.11%
- HSS7, Mean (SD) [12]: 2.67 (4.84)
- HSS7, Median [12]: 0.00
- HSS7 Change from baseline, Mean (SD) [12]: −13.36 (7.26)
- HSS7 Change from baseline, Median [12]: −13.00
- HSS7 Percent change from baseline, Mean (SD) [12]: −82.14 (27.76) %
- HSS7 Percent change from baseline, Median [12]: −100.00%
- HSS7, Mean (SD) [13]: 7.52 (7.21)
- HSS7, Median [13]: 7.00
- HSS7 Change from baseline, Mean (SD) [13]: −7.09 (6.54)
- HSS7 Change from baseline, Median [13]: −4.50
- HSS7 Percent change from baseline, Mean (SD) [13]: −49.56 (40.81) %
- HSS7 Percent change from baseline, Median [13]: −37.50%
- HSS7, Mean (SD) [14]: 4.25 (8.50)
- HSS7, Median [14]: 0.00
- HSS7 Change from baseline, Median [14]: −14.50
- HSS7 Percent change from baseline, Mean (SD) [14]: −75.00 (50.00) %
- HSS7 Percent change from baseline, Median [14]: −100.00%
- HSS7, Median [15]: 8.58
- HSS7 Change from baseline, Mean (SD) [15]: −4.85 (5.63)
- HSS7 Change from baseline, Median [15]: −4.00
- HSS7 Percent change from baseline, Mean (SD) [15]: −31.20 (34.88) %
- HSS7 Percent change from baseline, Median [15]: −33.18%
- HSS7, Mean (SD) [16]: 9.00 (NC)
- HSS7, Median [16]: 9.00
- HSS7 Change from baseline, Mean (SD) [16]: −11.00 (NC)
- HSS7 Change from baseline, Median [16]: −11.00
- HSS7 Percent change from baseline, Mean (SD) [16]: −55.00 (NC) %
- HSS7 Percent change from baseline, Median [16]: −55.00%
- HSS7, Mean (SD) [17]: 5.23 (4.86)
- HSS7, Median [17]: 4.08
- HSS7 Change from baseline, Mean (SD) [17]: −8.77 (5.84)
- HSS7 Change from baseline, Median [17]: −8.00
- HSS7 Percent change from baseline, Mean (SD) [17]: −60.93 (34.27) %
- HSS7 Percent change from baseline, Median [17]: −64.29%
- HSS7, Mean (SD) [18]: 3.20 (5.22)
- HSS7, Median [18]: 0.00
- HSS7 Change from baseline, Mean (SD) [18]: −14.40 (7.60)
- HSS7 Change from baseline, Median [18]: −17.00
- HSS7 Percent change from baseline, Mean (SD) [18]: −78.57 (29.45) %
- HSS7 Percent change from baseline, Median [18]: −100.00%
